Source: patent US20030161893A1, “PTPase inhibitors and methods of using the same” (priority 2001, published 2003)

How the values were obtained:
PTP1B = biological target: T1, PTP1B (Homo sapiens, UniProt P18031); test: In vitro PTPase assay, GST/PTP1B fusion protein; type: biochemical; settings: 0.1 to 1 μg/ml
T1 construct: purchased Upstate Biotechnology Inc. (Lake Placid, N.Y.)
Procedure: In vitro PTPase activities were measured using the commercial protein tyrosine phosphatase assay kit (Upstate Biotechnology, Inc. (“UBI”)) following established procedure known to one of skill in the art. This assay measures the in vitro dephosphorylation of a synthetic phosphotyrosine peptide of the sequence Arg-Arg-Leu-Ile-Glu-Asp-Ala-Gle-Tyr-Ala-Ala-Arg-Gly, wherein the tyrosine is phosphorylated (SEQ ID NO: 3). Briefly, 0.01 μg of GST/PTPase fusion proteins was incubated in 50 μl of Tris buffer (10 mM Tris, pH 7.4) containing different concentrations of inhibitors or chemicals (0-1,000 μg/ml) at 22° C. for 10 minutes, followed by addition of 0.2 mM of the phosphotyrosine peptide and incubation at 22° C. for 18 hours. 100 μl of Malachite Green solution was added and incubated for 5 minutes, and the absorbance at 660 nm was measured after 5 minutes.

Jak2/Stat5 = test: IL-3-induced Jak2/Stat5 tyrosine phosphorylation in Baf3 cells; type: cell-based, murine
Procedure: For induction of cellular protein phosphorylation by sodium stibogluconate or pervanadate, Baf3 cells were incubated in 0.1% FCS-RPMI 1640 medium at 37° C. for 16 hours. The cells were then washed twice in RPMI 1640 medium and incubated with sodium stibogluconate or pervanandate (0.1 mM) for various times prior to termination by lysing cells in cold lysis buffer (50 mM Tris, pH 7.4; 150 mM NaCl; 0.2 mM Na3VO4; 20 mm NaF; 1% Nonidet P-40; 2 mM PMSF; 20 μg/ml of Aprotinin and 1 mM of sodium molybdic acid). To determine the effect of sodium stibogluconate or potassium antimonyl tartrate on IL-3-induced Jak/Stat phosphorylation, Baf3 cells were deprived of the growth factor for 16 hours in 0.1% FCS RPMI 1640 medium and then incubated with or without sodium stibogluconate or potassium antimonyl tartrate for 10 minutes. IL-3 was next added to the cell suspension and incubated for various times. The Cells were then harvested and lysed in cold lysis buffer at 4° C. for 45 minutes. Total cell lysates (TCL) were separated in SDS-PAGE gels, blotted onto nitrocellulose membrane (Schleicher & Schuell), probed with specific antibodies and detected using an enhanced chemiluminescence kit (ECL, Amersham, Arlington Heights, Ill.).

WM35 cells = test: Cell proliferation assay (MTT), WM35 melanoma cells; type: cell-based, human
Procedure: For cell proliferation assays, cells were grown in 10% FCS culture medium containing various amounts of IFNs and/or sodium stibogluconate in 96 well plates and cultured at 37° C. for 3 or 6 days as indicated. The numbers of viable cells in proliferation assays were determined by MTT assays as described in Phatak et al., J. Immunol. 167, 3391 (2001).

Flag-PRL-1 = biological target: T2, Flag-PRL-1 (Homo sapiens, UniProt Q93096); test: Immunocomplex PTPase assay, Flag-PRL-1 NIH3T3 transfectants; type: cell-based; settings: cells treated 5 min
T2 construct: expressed in transfected cells
T2 sequence (Q93096 whole entry): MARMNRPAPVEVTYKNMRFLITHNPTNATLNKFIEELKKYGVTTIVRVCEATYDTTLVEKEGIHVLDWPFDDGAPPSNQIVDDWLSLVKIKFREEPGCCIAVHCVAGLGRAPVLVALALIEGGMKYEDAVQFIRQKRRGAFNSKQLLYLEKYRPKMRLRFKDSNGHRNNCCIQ
Procedure: Immunocomplex PTPase assays were performed to assess the effects of sodium stibogluconate on intracellular PTPases. Cells were untreated or treated with sodium stibogluconate for 5 minutes, washed with fresh medium and then lysed in cold lysis buffer (50 mM Tris, pH 7.4; 150 mM NaCl; 1% NP40; 2 mM PMSF; 20 ,g/ml of Aprotinin). The lysates were incubated with an anti-Flag antibody in immunoprecipitation assays. The immunocomplexes were collected with protein G sepharose beads (Pharmacia) and washed in cold lysis buffer for 4 times. […] 100 μL of malachite green solution (UBI) was added to each reaction prior to measurement of OD660 to quantify the amounts of free phosphate cleaved by the PTPases from the peptide substrate (Pathak et al., J. Imumol. 167, 3391 (2001)). The remaining 10% contents of individual samples were analyzed by SDS-PAGE/Western blotting to quantify the relative amounts of the phosphatase proteins. […]
The effects of sodium stibogluconate on intracellular PTPases were assessed using NIH3T3 or WM9 transfectants. […]

A549 cells = test: Cell growth assay (MTT), A549 lung cancer cells; type: cell-based, human; settings: 100 μg/ml, day 6
Procedure: (§1) NIH3T3 (Yi, et al., Blood 85, 87 (1995)), WM9 (Forsberg, et al., Proc. Nat. Acad Sci. USA 90, 393 (1993)), DU145 (Mickey, et al., Cancer Res. 37, 4049 (1977)), LoVo (Drewinko, et al., Cancer Res. 36, 467 (1976)), HEY (Buick, et al., Cancer Res. 45, 3668 (1985)), U251 (Yoshida, et al., Cancer 50, 410 (1982)), A549 (Giard, et al., J. Natl. Cancer Inst. 51, 1417 (1973)) and SK-N-SH (Helson, et al., Cancer Res. 35, 2594 (1975)) cell lines have been described and were cultured in RPMI 1640 supplemented with 10% fetal calf serum (FCS). For measurement of sodium stibogluconate effects on cell growth in vitro, cells were cultured in the absence (−) or presence (+) of various amounts of sodium stibogluconate for 6 days with viable cells quantified by MTT assays (Mosmann, J. Imunol. Methods 65, 55 (1983)). Percentages of growth inhibition by sodium stibogluconate were calculated (+/−×%).

HEY cells = test: Cell growth assay (MTT), HEY ovarian cancer cells; type: cell-based, human; settings: 100 μg/ml, day 6
Procedure: as §1

SK-N-SH cells = test: Cell growth assay (MTT), SK-N-SH neuroblastoma cells; type: cell-based, human; settings: 100 μg/ml, day 6
Procedure: as §1

[1] = tested on: WM9 PRL-1R86 transfectant; test: Growth of WM9 PRL-1R86 transfectant (MTT); type: cell-based, human; settings: 50 or 100 μg/ml, 6 days
Procedure: as §1
The effects of sodium stibogluconate on intracellular PTPases were assessed using NIH3T3 or WM9 transfectants. NIH3T3 or WM9 cells were transfected with the pBabepuro vector (V) or pBabepuro expression constructs of Flag-tagged PRLs using Lipofectamine (BRL) following the manufacturer's procedures. […]

[2] = tested on: PML/RAR-alpha chimeric protein; test: PML/RAR-alpha chimeric protein expression in NB4 cells; type: cell-based, human

T1 sequence (P18031 whole entry, species assumed, the tested form may be a part): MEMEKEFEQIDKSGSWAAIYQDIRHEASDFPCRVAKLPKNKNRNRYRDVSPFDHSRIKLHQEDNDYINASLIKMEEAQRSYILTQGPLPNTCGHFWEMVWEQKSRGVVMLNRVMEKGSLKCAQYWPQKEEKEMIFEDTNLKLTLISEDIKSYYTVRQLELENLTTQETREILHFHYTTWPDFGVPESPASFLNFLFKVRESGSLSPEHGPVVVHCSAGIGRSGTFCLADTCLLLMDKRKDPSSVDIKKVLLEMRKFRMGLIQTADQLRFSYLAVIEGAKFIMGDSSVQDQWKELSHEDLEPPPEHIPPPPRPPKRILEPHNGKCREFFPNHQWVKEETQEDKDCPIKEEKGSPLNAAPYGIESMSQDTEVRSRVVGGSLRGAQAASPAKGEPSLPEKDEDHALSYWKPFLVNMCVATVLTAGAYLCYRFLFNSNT

SMILES: O.O.O.O.O.O.O.O.O.O=C([O-])[C@@H]1[O][Sb]2([O-])([O][Sb]34([OH])[O][C@H]([C@H](O)CO)[C@H]([O]3)[C@H](C(=O)[O-])[O]4)[O][C@H]([C@H](O)CO)[C@@H]1[O]2.[Na+].[Na+].[Na+] [sodium stibogluconate]
- inhibition of PTP1B activity (PTP1B): only modestly effective
- phosphotyrosine levels of Jak2 and Stat5 versus cells without drug (Jak2/Stat5; IL-3 stimulated, densitometry): about twice
- Jak2/Stat5 tyrosine phosphorylation by drug alone (Jak2/Stat5; no IL-3, 37° C. for 16 hours): failed to induce Jak2/Stat5 tyrosine phosphorylation
- sensitivity of WM35 cells (WM35 cells): minimally affected
- PTPase activity of anti-Flag immunocomplexes, Flag-PRL-1 (Flag-PRL-1): little PTPase activities
- cell killing, A549 (A549 cells): near-complete cell killing
- cell killing, HEY (HEY cells): near-complete cell killing
- cell killing, SK-N-SH (SK-N-SH cells): near-complete cell killing
- growth inhibition of R86 cells at higher doses [1]: only modest growth inhibition
- expression levels of PML/RAR-alpha chimeric protein [2]: no detectable effect
